Data set [1] relates to Mycobacterium marinum. As to the kind of experiment: Antimycobacterial activity against Mycobacterium marinum ATCC BAA-535/M assessed as inhibition of mycobacterial growth incubated for 10 to 14 days by resazurin microtiter assay. The settings on record: time 10-14 day. It is filed as functional. For orientation: The colour change of resazurin is a common sign of viable cells or microbes.

For data set [2], the system named is Mycobacterium tuberculosis. As to the kind of experiment: Antimycobacterial activity against Mycobacterium tuberculosis mc2 6230 assessed as inhibition of mycobacterial growth incubated for 10 to 14 days by resazurin microtiter assay. It is filed as functional. The conditions noted are these: time 10-14 day.
A short description of data set [3]: Cytotoxicity against C57BL/6 mouse BMDM cells assessed as reduction in cell viability measured after 24 hrs by resazurin dye based assay. It is filed as toxicity. The conditions noted are these: C57BL/6, mouse, BMDM cells (bone marrow-derived macrophages).
In data set [4] the test system is Mycobacteroides abscessus. As to the kind of experiment: Antimycobacterial activity against Mycobacterium abscessus CIP104536T with rough morphotype assessed as inhibition of mycobacterial growth incubated for 3 to 5 days by resazurin microtiter assay. The settings on record: time 3-5 day. It is filed as functional.
Data set [5] has as its system Mycobacteroides abscessus. The experiment in a line: Antimycobacterial activity against Mycobacterium abscessus CIP104536T with smooth morphotype assessed as inhibition of mycobacterial growth incubated for 3 to 5 days by resazurin microtiter assay. It is filed as functional. The conditions noted are these: time 3-5 day.

≈ marks a conversion by molar mass, not a printed value.

For the compound `CCCCCCCCCC(=O)ONC(=O)/C=C/C=C/c1ccc(F)cc1`, the MIC50 (as a rule, an inhibitory concentration at the 50% level, which refers to growth in some studies and to a panel of isolates in others) in data set [1] was 13.2 µg/mL (≈ 36.5 µM); in data set [2], 20.3 µg/mL (≈ 56.2 µM); in data set [4], above 100 µg/mL; in data set [5], above 100 µg/mL. Moreover, the figures for the MIC90 in data set [1] and in data set [2] were 17.3 µg/mL (≈ 47.9 µM) and 34.7 µg/mL (≈ 96 µM), respectively. The CC50 (in general, the concentration at which the toxic effect on the cells reaches its halfway point) at 24 h in data set [3] is above 125 µg/mL.
In the case of `O=C(/C=C/c1ccc(C(F)(F)F)cc1)NO`, the MIC50 stood at 14.1 µg/mL (≈ 61 µM) in data set [1], 14.4 µg/mL (≈ 62.3 µM) in data set [2], 6.3 µg/mL (≈ 27.3 µM) in data set [4] and 37.2 µg/mL (≈ 161 µM) in data set [5]. Also, the MIC90 (as a rule, the lowest concentration that inhibits either 90% of growth or 90% of the strains tested, depending on the study) in data set [1] was above 100 µg/mL; in data set [2], above 100 µg/mL; in data set [4] it was 21.9 µg/mL (≈ 94.7 µM); in data set [5], 39.6 µg/mL (≈ 171 µM). In data set [3], the 50% cytotoxic concentration (CC50) at 24 h is below 10 µg/mL.
For `COc1ccc(/C=C/C(=O)NO)cc1`, the MIC50 was 58.2 µg/mL (≈ 301 µM) in data set [1], 23.1 µg/mL (≈ 120 µM) in data set [2], above 100 µg/mL in data set [4] and above 100 µg/mL in data set [5]. Further, the figures for the MIC90 in data set [1] and in data set [2] were 89.5 µg/mL (≈ 463 µM) and 24.3 µg/mL (≈ 126 µM), respectively. The CC50 at 24 h in data set [3] was below 10 µg/mL.
For the compound `O=C(/C=C/c1cccc(C(F)(F)F)c1)NO`, the MIC50 in data set [1] was determined as 7.1 µg/mL (≈ 30.7 µM); in data set [2] it was 12.8 µg/mL (≈ 55.4 µM); in data set [4] it was 7.8 µg/mL (≈ 33.7 µM); in data set [5], 72.5 µg/mL (≈ 314 µM). Further, the MIC90 in data set [1] is 47.7 µg/mL (≈ 206 µM); in data set [2], above 100 µg/mL; in data set [4], 16 µg/mL (≈ 69.2 µM); in data set [5], 74.8 µg/mL (≈ 324 µM). Moreover, in data set [3], the CC50 at 24 h is below 10 µg/mL.
As to `O=C(/C=C/C=C/c1cccc(C(F)(F)F)c1)NO`, the MIC50 in data set [1] came to 10.1 µg/mL (≈ 39.3 µM); in data set [2], 50.5 µg/mL (≈ 196 µM); in data set [4], 4.4 µg/mL (≈ 17.1 µM); in data set [5], 52.3 µg/mL (≈ 203 µM). Besides, the MIC90 in data set [1] was above 100 µg/mL; in data set [2] it was above 100 µg/mL; in data set [4] it was 7 µg/mL (≈ 27.2 µM); in data set [5] it was above 100 µg/mL. The CC50 at 24 h in data set [3] is below 10 µg/mL.
Regarding `CCCCCCONC(=O)/C=C/C=C/c1ccc(F)cc1`, the MIC50 was 37.1 µg/mL (≈ 127 µM) in data set [1], above 100 µg/mL in data set [2], above 100 µg/mL in data set [4] and above 100 µg/mL in data set [5]. Besides, the MIC90 in data set [1] is above 100 µg/mL. For the same compound, in data set [3], the CC50 at 24 h was above 125 µg/mL.
With `CCCCCC(=O)ONC(=O)/C=C/C=C/c1ccc(OC)cc1`, the MIC50 was 26.8 µg/mL (≈ 84.4 µM) in data set [1], 13.8 µg/mL (≈ 43.5 µM) in data set [2], above 100 µg/mL in data set [4] and above 100 µg/mL in data set [5]. Moreover, the MIC90 in data set [1] came to 54.5 µg/mL (≈ 172 µM); in data set [2] it was 22.9 µg/mL (≈ 72.2 µM). Further, the CC50 at 24 h in data set [3] is below 10 µg/mL.
For `CCCCOc1ccc(/C=C/C=C/C(=O)NN)cc1`, the MIC50 in data set [1], in data set [2], in data set [4] and in data set [5] was above 100 µg/mL in each case. Moreover, in data set [3], the CC50 at 24 h was 65 µg/mL (≈ 250 µM).
Consider `O=C(/C=C/c1ccc(F)cc1)NO`, for which the MIC50 in data set [1] is 3.5 µg/mL (≈ 19.3 µM); in data set [2], 47.3 µg/mL (≈ 261 µM); in data set [4], above 100 µg/mL; in data set [5] it was above 100 µg/mL. Moreover, the figures for the MIC90 in data set [1] and in data set [2] were 23.9 µg/mL (≈ 132 µM) and 55.4 µg/mL (≈ 306 µM), respectively. Also, the CC50 at 24 h in data set [3] is below 10 µg/mL.
For the compound `O=C(/C=C/c1cccc(F)c1)NO`, the MIC50 amounted to 3.3 µg/mL (≈ 18.2 µM) in data set [1], 13.5 µg/mL (≈ 74.5 µM) in data set [2], 7.6 µg/mL (≈ 42 µM) in data set [4] and 12.2 µg/mL (≈ 67.3 µM) in data set [5]. In addition, the MIC90 in data set [1] was 25.9 µg/mL (≈ 143 µM); in data set [2] it was above 100 µg/mL; in data set [4], 68.4 µg/mL (≈ 378 µM); in data set [5], above 100 µg/mL. Further, the CC50 at 24 h in data set [3] is below 10 µg/mL.
For `CCCCCC(=O)ONC(=O)/C=C/C=C/c1ccc(F)cc1`, the MIC50 is 19.8 µg/mL (≈ 64.8 µM) in data set [1], 21.6 µg/mL (≈ 70.7 µM) in data set [2], above 100 µg/mL in data set [4] and above 100 µg/mL in data set [5]. Moreover, the MIC90 in data set [1] turned out to be 92.9 µg/mL (≈ 304 µM); in data set [2] it was 40.7 µg/mL (≈ 133 µM). Moreover, the CC50 at 24 h in data set [3] was below 10 µg/mL.
For the compound `O=C(/C=C/C=C/c1ccccc1)NO`, the MIC50 was 14.9 µg/mL (≈ 78.7 µM) in data set [1], above 100 µg/mL in data set [2], above 100 µg/mL in data set [4] and above 100 µg/mL in data set [5]. For the same compound, the MIC90 in data set [1] was found to be 91.4 µg/mL (≈ 483 µM). Besides, the CC50 at 24 h in data set [3] is below 10 µg/mL.
Turning to `O=C(/C=C/c1ccccc1)NO`, the MIC50 in data set [1] was 6.7 µg/mL (≈ 41.1 µM); in data set [2], 28.8 µg/mL (≈ 176 µM); in data set [4] it was above 100 µg/mL; in data set [5] it was above 100 µg/mL. The figures for the MIC90 in data set [1] and in data set [2] were 32.4 µg/mL (≈ 199 µM) and 40.7 µg/mL (≈ 249 µM), respectively. In data set [3], the CC50 at 24 h is below 10 µg/mL.
`NNC(=O)/C=C/C=C/c1ccc(F)cc1`: the MIC50 is 20.6 µg/mL (≈ 99.9 µM) in data set [1], 27.4 µg/mL (≈ 133 µM) in data set [2], above 100 µg/mL in data set [4] and above 100 µg/mL in data set [5]. Also, the MIC90 in data set [1] and in data set [2] was above 100 µg/mL throughout. Moreover, the CC50 at 24 h in data set [3] was above 125 µg/mL.
As to `NNC(=O)/C=C/c1cccc(C(F)(F)F)c1`, the MIC50 in data set [1] was above 100 µg/mL; in data set [2], 40.5 µg/mL (≈ 176 µM); in data set [4], 51.4 µg/mL (≈ 223 µM); in data set [5] it was above 100 µg/mL. Also, the MIC90 in data set [2] is 65.7 µg/mL (≈ 285 µM); in data set [4], 55.7 µg/mL (≈ 242 µM). In addition, in data set [3], the CC50 at 24 h was above 125 µg/mL.

Source of the values: ChEMBL document CHEMBL5143637, “Design, synthesis and antibacterial activity against pathogenic mycobacteria of conjugated hydroxamic acids, hydrazides and O-alkyl/O-acyl protected hydroxamic derivatives” (Bioorg Med Chem Lett, 2022).
